Assay results: patent US6855730B2, “3-methylidenyl-2-indolinone modulators of protein kinase” (Sugen, Inc., priority 1998, dated 2005)

Biological target: T1, 3T3 cell line genetically engineered to express human EGF-R (Homo sapiens, UniProt P00533)
T1 construct: expressed in transfected cells; host or cells: 3T3
Test: EGF-induced BrdU incorporation assay
Assay type: cell-based
Settings: read-out: BrdU EGF driven IC50
Method: The cellular/catalytic assays described herein are performed in an ELISA format. The general procedure is as follows: a compound is introduced to cells expressing the test kinase, either naturally or recombinantly, for a selected period of time after which, if the test kinase is a receptor, a ligand known to activate the receptor is added. The cells are lysed and the lysate is transferred to the wells of an ELISA plate previously coated with a specific antibody recognizing the substrate of the enzymatic phosphorylation reaction. Non-substrate components of the cell lysate are washed away and the amount of phosphorylation on the substrate is detected with an antibody specifically recognizing phosphotyrosine compared with control cells that were not contacted with a test compound. The cellular/biologic assays described herein measure the amount of DNA made in response to activation of a test kinase, which is a general measure of a proliferative response. The general procedure for this assay is as follows: a compound is introduced to cells expressing the test kinase, either naturally or recombinantly, for a selected period of time after which, if the test kinase is a receptor, a ligand known to activate the receptor is added. After incubation at least overnight, a DNA labeling reagent such as Bromodeoxyuridine (BrdU) or 3H-thymidine is added. The amount of labeled DNA is detected with either an anti-BrdU antibody or by measuring radioactivity and is compared to control cells not contacted with a test compound. […]
Protocol • (1) Cells are seeded at 8000 cells/well in 10% CS, 2mM Gin in DMEM, in a 96 well plate. Cells are incubated overnight at 37° C. in 5% CO2. • (2) After 24 hours, the cells are washed with PBS, and then are serum starved in serum free medium (0% CS DMEM with 0.1% BSA) for 24 hours. • (3) On day 3, ligand (EGF, 2 nM, prepared in DMEM with 0.1% BSA) and test compounds are added to the cells simultaneously. The negative control wells receive serum free DMEM with 0.1% BSA only, the positive control cells receive the ligand (EGF) but no test compound. Test compounds are prepared in serum free DMEM with ligand in a 96 well plate, and serially diluted for 7 test concentrations. • (4) After 20 hours of ligand activation, diluted BrdU labeling reagent (1:100 in DMEM, 0.1% BSA) is added and the cells are incubated with BrdU (final concentration=10 μM) for 1.5 hours. • (5) After incubation with labeling reagent, the medium is removed by decanting and tapping the inverted plate on a paper towel. FixDenat solution is added (50 μl/well) and the plates are incubated at room temperature for 45 minutes on a plate shaker. • (6) The FixDenat solution is thoroughly removed by decanting and tapping the inverted plate on a paper towel. Milk is added (5% dehydrated milk in PBS, 200 μl/well) as a blocking solution and the plate is incubated for 30 minutes at room temperature on a plate shaker. • (7) The blocking solution is removed by decanting and the wells are washed once with PBS. Anti-BrdU-POD solution (1:100 dilution in PBS, 1% BSA) is added (100 μ/well) and the plate is incubated for 90 minutes at room temperature on a plate shaker. • (8) The antibody conjugate is thoroughly removed by decanting and rinsing the wells 5 times with PBS, and the plate is dried by inverting and tapping on a paper towel. • (9) TMB substrate solution is added (100 μl/well) and incubated for 20 minutes at room temperature on a plate shaker until color development is sufficient for photometric detection. • (10) The absorbance of the samples are measured at 410 nm (in “dual wavelength” mode with a filter reading at 490 nm, as a reference wavelength) on a Dynatech ELISA plate reader.

SMILES | IC50 [µM]
COc1ccc2c(c1)/C(=C/c1[nH]cc(C)c1CCC(=O)O)C(=O)N2 [Example 222, 3-[2-(5-Methoxy-2-oxo-1,2-dihydroindol-3-ylidenemethyl)-4-methyl-1H-pyrrol-3-yl]-propionic acid] | > 50
Cc1c[nH]c(/C=C2\C(=O)Nc3ccc(Cl)cc32)c1CCC(=O)O [Example 216, 3-[2-(5-Chloro-2-oxo-1,2-dihydroindol-3-ylidenemethyl)-4-methyl-1H-pyrrol-3-yl]-propionic acid] | > 50
COc1ccc2c(c1)NC(=O)/C2=C\c1[nH]cc(C)c1CCC(=O)O [Example 217, 3-[2-(6-Methoxy-2-oxo-1,2-dihydroindol-3-ylidenemethyl)-4-methyl-1H-pyrrol-3-yl]-propionic acid] | > 50
Cc1c[nH]c(/C=C2\C(=O)Nc3cccc(C)c32)c1CCC(=O)O [Example 218, 3-[2-(4-Methyl-2-oxo-1,2-dihydroindol-3-ylidenemethyl)-4-methyl-1H-pyrrol-3-yl]-propionic acid] | 43.5
COc1c(C(C)C)cc(/C=C2/C(=O)Nc3ccccc32)cc1C(C)C [Example 1, 3-(3,5-Diisopropyl-4-methoxybenzylidene)-1,3-dihydroindol-2-one] | 6.6
Cc1c[nH]c(C=C2C(=O)Nc3cc(Cl)ccc32)c1CCC(=O)O [Example 219, 3-[2-(6-Chloro-2-oxo-1,2-dihydroindol-3-ylidenemethyl)-4-methyl-1H-pyrrol-3-yl]-propionic acid] | > 50
COc1c(C(C)C)cc(/C=C2/C(=O)Nc3ccc(Cl)cc32)cc1C(C)C [Example 2, 5-Chloro-3-(3,5-diisopropyl-4-methoxybenzylidene)-1,3-dihydroindol-2-one] | 6.5
Cc1c[nH]c(/C=C2\C(=O)Nc3ccccc32)c1CCC(=O)O [Example 215, 3-[4-Methyl-2-(2-oxo-1,2-dihydroindol-3-ylidenemethyl)-1H-pyrrol-3-yl]-propionic acid] | > 100
Cc1c[nH]c(/C=C2\C(=O)Nc3ccc(Br)cc32)c1CCC(=O)O [Example 220, 3-[2-(5-Bromo-2-oxo-1,2-dihydroindol-3-ylidenemethyl)-4-methyl-1H-pyrrol-3-yl]-propionic acid] | > 50
